# Test results reported in patent US20220169628A1 (University of Florida Research Foundation, Incorporated, priority 2019, published 2022).
# Where two headings read alike, the source gives them in different places.
# Key:
# MOLT-4 cells = test: Cell viability assay, MTS, 48 h, MOLT-4; assay type: cell-based; conditions: 48 hours, read-out: IC50 (48 hours) MOLT-4
# Experimental: (§1) Acute lymphoblastic leukemia cells (MOLT-4 and RS4; 11) or small cell lung cancer (NCI-H146 or simply H146) were incubated with increasing concentrations of Bcl-xL degraders for 48 h. Cell viability was measured by tetrazolium-based MTS assay.
# RS4;11 cells = test: Cell viability assay, MTS, 48 h, RS4;11; assay type: cell-based; conditions: 48 hours, read-out: IC50 (48 hours) RS4;11
# Experimental: as §1
SMILES,IC50 (MOLT-4 cells) [µM],IC50 (RS4;11 cells) [µM],"IC50 (MOLT-4 cells; Homo sapiens, MOLT-4, 48 h) [µM]","IC50 (RS4;11 cells; Homo sapiens, RS4-11, 48 h) [µM]"
Cc1ncsc1-c1ccc([C@H](C)NC(=O)[C@@H]2C[C@@H](O)CN2C(=O)[C@@H](NC(=O)C[C@H]2CC[C@H](CC(=O)N3CCC4(CCN(CC5(C)CCC(c6ccc(Cl)cc6)=C(CN6CCN(c7ccc(C(=O)NS(=O)(=O)c8ccc(N[C@H](CCN9CCOCC9)CSc9ccccc9)c(S(=O)(=O)C(F)(F)F)c8)cc7)CC6)C5)CC4)CC3)CC2)C(C)(C)C)cc1 (relative stereo) [degrader #39],0.05 to 0.15,< 0.05,,
Cc1ncsc1-c1ccc([C@H](C)NC(=O)[C@@H]2C[C@@H](O)CN2C(=O)[C@@H](NC(=O)CCCCCCCN2CCN(CC3(C)CCC(c4ccc(Cl)cc4)=C(CN4CCN(c5ccc(C(=O)NS(=O)(=O)c6ccc(N[C@H](CCN7CCOCC7)CSc7ccccc7)c(S(=O)(=O)C(F)(F)F)c6)cc5)CC4)C3)CC2)C(C)(C)C)cc1 (stereo partly shown) [Compound 53],,,0.05 to 0.15,0.05 to 0.15
"Cc1ncsc1-c1ccc([C@H](C)NC(=O)[C@@H]2C[C@@H](O)CN2C(=O)[C@@H](NC(=O)CCCCCN2CCN(CC3(C)CCC(c4ccc(Cl)cc4)=C(CN4CCN(c5ccc(C(=O)NS(=O)(=O)c6ccc(N[C@H](CCN7CCOCC7)CSc7ccccc7)c(S(=O)(=O)C(F)(F)F)c6)cc5)CC4)C3)CC2)C(C)(C)C)cc1 (stereo partly drawn) [Compound 55, N^1-((4′-chloro-4-methyl-6-((4-(4-(((4-(((R)-4-morpholino-1-(phenylthio)butan-2-yl)amino)-3-((trifluoromethyl)sulfonyl)phenyl)sulfonyl)carbamoyl)phenyl)piperazin-1-yl)methyl)-2,3,4,5-tetrahydro-[1,1′-biphenyl]-4-yl)methyl)-N^2—((S)-1-((2S,4R)-4-hydroxy-2-(((S)-1-(4-(4-methylthiazol-5-yl)phenyl)ethyl)carbamoyl)pyrrolidin-1-yl)-3,3-dimethyl-1-oxobutan-2-yl)dodecanediamide]",,,< 0.05,< 0.05
Cc1ncsc1-c1ccc([C@H](C)NC(=O)[C@@H]2C[C@@H](O)CN2C(=O)[C@@H](NC(=O)CCCC(=O)N2CCN(CCN(C)CC3(C)CCC(c4ccc(Cl)cc4)=C(CN4CCN(c5ccc(C(=O)NS(=O)(=O)c6ccc(N[C@H](CCN7CCOCC7)CSc7ccccc7)c(S(=O)(=O)C(F)(F)F)c6)cc5)CC4)C3)CC2)C(C)(C)C)cc1 (stereo partly shown) [compound 57],,,0.15 to 0.5,0.15 to 0.5
Cc1ncsc1-c1ccc([C@H](C)NC(=O)[C@@H]2C[C@@H](O)CN2C(=O)[C@@H](NC(=O)CCCCC(=O)N2CCN(CCN(C)CC3(C)CCC(c4ccc(Cl)cc4)=C(CN4CCN(c5ccc(C(=O)NS(=O)(=O)c6ccc(N[C@H](CCN7CCOCC7)CSc7ccccc7)c(S(=O)(=O)C(F)(F)F)c6)cc5)CC4)C3)CC2)C(C)(C)C)cc1 (stereo partly shown) [compound 58],,,0.05 to 0.15,0.05 to 0.15
Cc1ncsc1-c1ccc([C@H](C)NC(=O)[C@@H]2C[C@@H](O)CN2C(=O)[C@@H](NC(=O)CCCCCC(=O)N2CCN(CCN(C)CC3(C)CCC(c4ccc(Cl)cc4)=C(CN4CCN(c5ccc(C(=O)NS(=O)(=O)c6ccc(N[C@H](CCN7CCOCC7)CSc7ccccc7)c(S(=O)(=O)C(F)(F)F)c6)cc5)CC4)C3)CC2)C(C)(C)C)cc1 (stereo partly shown) [compound 59],,,< 0.05,< 0.05
Cc1ncsc1-c1ccc([C@H](C)NC(=O)[C@@H]2C[C@@H](O)CN2C(=O)[C@@H](NC(=O)CCCCCC(=O)NCCN(C)CC2(C)CCC(c3ccc(Cl)cc3)=C(CN3CCN(c4ccc(C(=O)NS(=O)(=O)c5ccc(N[C@H](CCN6CCOCC6)CSc6ccccc6)c(S(=O)(=O)C(F)(F)F)c5)cc4)CC3)C2)C(C)(C)C)cc1 (stereo partly shown) [compound 60],,,0.15 to 0.5,0.15 to 0.5
"Cc1ncsc1-c1ccc([C@H](C)NC(=O)[C@@H]2C[C@@H](O)CN2C(=O)[C@@H](NC(=O)CCCCCCC(=O)NCCN(C)CC2(C)CCC(c3ccc(Cl)cc3)=C(CN3CCN(c4ccc(C(=O)NS(=O)(=O)c5ccc(N[C@H](CCN6CCOCC6)CSc6ccccc6)c(S(=O)(=O)C(F)(F)F)c5)cc4)CC3)C2)C(C)(C)C)cc1 (stereo partly drawn) [compound 61, N1-(2-(((4′-chloro-4-methyl-6-((4-(4-(((4-(((R)-4-morpholino-1-(phenylthio)butan-2-yl)amino)-3-((trifluoromethyl)sulfonyl)phenyl)sulfonyl)carbamoyl)phenyl)piperazin-1-yl)methyl)-2,3,4,5-tetrahydro-[1,1′-biphenyl]-4-yl)methyl)(methyl)amino)ethyl)-N8-((S)-1-((2S,4R)-4-hydroxy-2-(((S)-1-(4-(4-methylthiazol-5-yl)phenyl)ethyl)carbamoyl)pyrrolidin-1-yl)-3,3-dimethyl-1-oxobutan-2-yl)octanediamide]",,,0.15 to 0.5,0.05 to 0.15
Cc1ncsc1-c1ccc([C@H](C)NC(=O)[C@@H]2C[C@@H](O)CN2C(=O)[C@@H](NC(=O)CCCCCCCC(=O)NCCN(C)CC2(C)CCC(c3ccc(Cl)cc3)=C(CN3CCN(c4ccc(C(=O)NS(=O)(=O)c5ccc(N[C@H](CCN6CCOCC6)CSc6ccccc6)c(S(=O)(=O)C(F)(F)F)c5)cc4)CC3)C2)C(C)(C)C)cc1 (stereo partly shown) [compound 62],,,0.15 to 0.5,< 0.05
"Cc1ncsc1-c1ccc([C@H](C)NC(=O)[C@@H]2C[C@@H](O)CN2C(=O)[C@@H](NC(=O)CCCC(=O)N2CCN(C(=O)C3(C)CCC(c4ccc(Cl)cc4)=C(CN4CCN(c5ccc(C(=O)NS(=O)(=O)c6ccc(N[C@H](CCN7CCOCC7)CSc7ccccc7)c(S(=O)(=O)C(F)(F)F)c6)cc5)CC4)C3)CC2)C(C)(C)C)cc1 (stereo partly drawn) [compound 63, (2S,4R)-1-((2S)-2-(5-(4-(4′-chloro-4-methyl-6-((4-(4-(((4-(((R)-4-morpholino-1-(phenylthio)butan-2-yl)amino)-3-((trifluoromethyl)sulfonyl)phenyl)sulfonyl)carbamoyl)phenyl)piperazin-1-yl)methyl)-2,3,4,5-tetrahydro-[1,1′-biphenyl]-4-carbonyl)piperazin-1-yl)-5-oxopentanamido)-3,3-dimethylbutanoyl)-4-hydroxy-N—((S)-1-(4-(4-methylthiazol-5-yl)phenyl)ethyl)pyrrolidine-2-carboxamide]",,,> 0.5,> 0.5
"Cc1ncsc1-c1ccc([C@H](C)NC(=O)[C@@H]2C[C@@H](O)CN2C(=O)[C@@H](NC(=O)CCCCCC(=O)N2CCN(C(=O)C3(C)CCC(c4ccc(Cl)cc4)=C(CN4CCN(c5ccc(C(=O)NS(=O)(=O)c6ccc(N[C@H](CCN7CCOCC7)CSc7ccccc7)c(S(=O)(=O)C(F)(F)F)c6)cc5)CC4)C3)CC2)C(C)(C)C)cc1 (stereo partly drawn) [compound 64, (2S,4R)-1-((2S)-2-(7-(4-(4′-chloro-4-methyl-6-((4-(4-(((4-(((R)-4-morpholino-1-(phenylthio)butan-2-yl)amino)-3-((trifluoromethyl)sulfonyl)phenyl)sulfonyl)carbamoyl)phenyl)piperazin-1-yl)methyl)-2,3,4,5-tetrahydro-[1,1′-biphenyl]-4-carbonyl)piperazin-1-yl)-7-oxoheptanamido)-3,3-dimethylbutanoyl)-4-hydroxy-N—((S)-1-(4-(4-methylthiazol-5-yl)phenyl)ethyl)pyrrolidine-2-carboxamide]",,,0.05 to 0.15,0.05 to 0.15
"Cc1ncsc1-c1ccc([C@H](C)NC(=O)[C@@H]2C[C@@H](O)CN2C(=O)[C@@H](NC(=O)CCCCCCC(=O)N2CCN(C(=O)C3(C)CCC(c4ccc(Cl)cc4)=C(CN4CCN(c5ccc(C(=O)NS(=O)(=O)c6ccc(N[C@H](CCN7CCOCC7)CSc7ccccc7)c(S(=O)(=O)C(F)(F)F)c6)cc5)CC4)C3)CC2)C(C)(C)C)cc1 (stereo partly drawn) [compound 65, (2S,4R)-1-((2S)-2-(8-(4-(4′-chloro-4-methyl-6-((4-(4-(((4-(((R)-4-morpholino-1-(phenylthio)butan-2-yl)amino)-3-((trifluoromethyl)sulfonyl)phenyl)sulfonyl)carbamoyl)phenyl)piperazin-1-yl)methyl)-2,3,4,5-tetrahydro-[1,1′-biphenyl]-4-carbonyl)piperazin-1-yl)-8-oxooctanamido)-3,3-dimethylbutanoyl)-4-hydroxy-N—((S)-1-(4-(4-methylthiazol-5-yl)phenyl)ethyl)pyrrolidine-2-carboxamide]",,,< 0.05,< 0.05
"Cc1ncsc1-c1ccc([C@H](C)NC(=O)[C@@H]2C[C@@H](O)CN2C(=O)[C@@H](NC(=O)CCCCCCCC(=O)N2CCN(C(=O)C3(C)CCC(c4ccc(Cl)cc4)=C(CN4CCN(c5ccc(C(=O)NS(=O)(=O)c6ccc(N[C@H](CCN7CCOCC7)CSc7ccccc7)c(S(=O)(=O)C(F)(F)F)c6)cc5)CC4)C3)CC2)C(C)(C)C)cc1 (stereo partly drawn) [compound 66, (2S,4R)-1-((2S)-2-(9-(4-(4′-chloro-4-methyl-6-((4-(4-(((4-(((R)-4-morpholino-1-(phenylthio)butan-2-yl)amino)-3-((trifluoromethyl)sulfonyl)phenyl)sulfonyl)carbamoyl)phenyl)piperazin-1-yl)methyl)-2,3,4,5-tetrahydro-[1,1′-biphenyl]-4-carbonyl)piperazin-1-yl)-9-oxononanamido)-3,3-dimethylbutanoyl)-4-hydroxy-N—((S)-1-(4-(4-methylthiazol-5-yl)phenyl)ethyl)pyrrolidine-2-carboxamide]",,,< 0.05,< 0.05
"Cc1ncsc1-c1ccc([C@H](C)NC(=O)[C@@H]2C[C@@H](O)CN2C(=O)[C@@H](NC(=O)CN2CCN(CC3(C)CCC(c4ccc(Cl)cc4)=C(CN4CCN(c5ccc(C(=O)NS(=O)(=O)c6ccc(N[C@H](CCN7CCOCC7)CSc7ccccc7)c(S(=O)(=O)C(F)(F)F)c6)cc5)CC4)C3)CC2)C(C)(C)C)cc1 (stereo partly drawn) [compound 67, (2S,4R)-1-((2S)-2-(2-(4-((4′-chloro-4-methyl-6-((4-(4-(((4-(((R)-4-morpholino-1-(phenylthio)butan-2-yl)amino)-3-((trifluoromethyl)sulfonyl)phenyl)sulfonyl)carbamoyl)phenyl)piperazin-1-yl)methyl)-2,3,4,5-tetrahydro-[1,1′-biphenyl]-4-yl)methyl)piperazin-1-yl)acetamido)-3,3-dimethylbutanoyl)-4-hydroxy-N—((S)-1-(4-(4-methylthiazol-5-yl)phenyl)ethyl)pyrrolidine-2-carboxamide]",,,0.05 to 0.15,0.05 to 0.15
